Experimental data: patent US6900216B2, “Dihydroimidazo[2,1-b]thiazole and dihydro-5h-thiazolo[3,2-A]pyrimidines as antidepressant agents” (Knoll GmbH, priority 2000, dated 2005)

System: muscarinic receptors
Assay: Muscarinic binding: displacement of [3H]N-methylscopolamine, rat frontal cortical membranes
Settings: 10^−6 M test compound, single determination, [3H]N-methylscopolamine
Description: Frontal cortical tissue from the brains of male Charles River rats weighing 150-250 g was homogenised in ice-cold 20 mM HEPES buffer, pH 7.5 (measured at 25° C.) containing 100 mM sodium chloride and 10 mM magnesium chloride (1:10 w/v) using a Polytron PT3100 (speed setting 21,700 rpm, 3×5 seconds) and centrifuged at 49,500 g for 30 minutes at 4° C. The supernatant was discarded and the pellet rehomogenised in 20 mM HEPES buffer, pH 7.5 containing 100 mM sodium chloride and 10 mM magnesium chloride (equivalent to 12.5 mg wet weight of tissue/ml). Membranes were stored at −80° C. until required.
Membranes were thawed, diluted 1:10 in ice-cold 20 mM HEPES buffer, pH 7.5 containing 100 mM sodium chloride and 10 mM magnesium chloride and homogenised using a Polytron PT3100 as above. Diluted membranes (200 μl; equivalent to 0.25 mg wet weight of tissue/tube) were incubated with 200 μl of 20 mM HEPES buffer, pH 7.5 containing 100 mM sodium chloride and 10 mM magnesium chloride and 50 μl [^3H]N-methylscopolamine at a single concentration of 0.15 nM and 50 μl distilled water (total binding) or 50 μl test compound (at a single concentration of 10^−6 M or at 10 concentrations ranging from 10^−11-10^−3 M) or 50 μl atropine sulphate (1 μM; non-specific binding) for 30 min at 30° C. Membrane bound radioactivity was recovered by filtration under vacuum through Skatron 11734 filters using a Skatron cell harvester. Filters were rapidly washed with ice-cold 20 mM HEPES buffer, pH 7.5 (wash 1,2 at setting 5,5). The scored filter paper discs were punched out into vials, scintillation fluid added and radioactivity determined by liquid scintillation counting.
For each of these tests measuring the ability of compounds of Formula I to displace standard ligands from 5-HT1A receptors and 5-hydroxytryptamine (5-HT) and noradrenaline (NA) reuptake sites and muscarinic receptors in vitro, the percentage displacement of specific binding of tritiated ligand by 10^−6 M test compound was calculated in the following way.
Firstly, specific binding of tritiated ligand in the absence (A) and presence (B) of test compound was determined:
In the absence of compound: A(dpm)=Total binding (dpm)−Non-specific binding (dpm) In the presence of compound (10^−6 M): B(dpm)=Binding at 10^−6M (dpm)−Non-specific binding (dpm)
The specific binding of tritiated ligand in the presence (B) of compound was then converted to a percentage of specific binding of tritiated ligand in the absence (A) of compound: % Specific binding at 10^−6 M=B(dpm)/A(dpm)×100
The percentage displacement of specific binding of tritiated ligand by the test compound (10^−6 M) was then obtained by subtraction of the percentage specific binding in the presence of compound from the percentage specific binding in the absence of compound, which is taken as the maximum binding and so equals 100%:
% Displacement at 10^−6 M=100−% Specific binding at 10^−6 M.
In some cases, displacement curves were then produced for compounds which displaced ≧50% of specific binding of the tritiated ligand at 10^−6 M using a range of concentrations of the compound. The Ki was then calculated by simultaneous fitting using equations derived from the Feldman equations by robust non-linear regression to data from three experiments simultaneously (De Lean et al., 1978; Munson and Rodbard, 1980; Feldman, 1992). Munson P J and Rodbard D. Ligand: a versatile computerised approach for characterisation of ligand binding systems. Anal Biochem 1980; 107: 220. Feldman HA. Mathematical theory of complex ligand binding systems at equilibrium: some methods for parameter fitting. Anal Biochem 1992: 48, 317. De Lean A, Munson P J and Rodbard D. Simultaneous analysis of families of sigmoidal curves: application to bioassay, radioligand assay, and physiological dose-response curves. Am J Physiol 1978: 235 (2), E97-E102. […]

Compared with `CC1=C(c2cccc3sc(C)cc23)N2CCN=C2S1.Cl` [Example 33, 2-methyl-3-(2-methylbenzo[b]thiophen-4-yl)-5,6-dihydroimidazo[2,1-b]thiazole hydrochloride], `Br.CC1=C(c2ccc(F)c3sccc23)N2CCN=C2S1` [Example 38, 3-(7-fluorobenzo[b]thiophen-4-yl)-2-methyl-5,6-dihydroimidazo[2,1-b]thiazole hydrobromide] is lower in “Muscarinic % displacement at 10^−6 M” value: 38% for the first, 12% for the second.

For `Br.CC1=C(c2ccc3ccsc3c2)N2CCN=C2S1` [Example 37, 3-(benzo[b]thiophen-6-yl)-2-methyl-5,6-dihydroimidazo[2,1-b]thiazole hydrobromide], the “Muscarinic % displacement at 10^−6 M” value was 9%.

Same assay, conditions: [3H]N-methylscopolamine 0.15 nM, rat frontal cortical membranes

`Br.c1cc(C2=C(C3CC3)SC3=NCCN32)c2ccsc2c1` [Example 34, 3-(benzo[b]thiophen-4-yl)-2-cyclopropyl-5,6-dihydroimidazo[2,1-b]thiazole hydrobromide] and `Br.C=CCC1=C(c2cccc3sccc23)N2CCN=C2S1` [Example 36, 2-allyl-3-(benzo[b]thiophen-4-yl)-5,6-dihydroimidazo[2,1-b]thiazole hydrobromide] are within 1.5-fold of each other in Ki: 76 nM for the first, 66 nM for the second.

`CC(C)C1=C(c2cccc3sccc23)N2CCN=C2S1.O=C(O)/C=C/C(=O)O` [Example 35, 3-(benzo[b]thiophen-4-yl)-2-(1-methylethyl)-5,6-dihydroimidazo[2,1-b]thiazole fumarate] gave a Ki of 492 nM.
